Article PMC4520770 (Journal of molecular biology, 2015)
No end group written: not given here.

Columns and labels:
BHRF1 = BHRF1 (Epstein-Barr virus, UniProt P03182); assay: biochemical; assay type: binding, Epstein-Barr herpesvirus (EBV)
Mcl-1 = Mcl-1 (Homo sapiens, UniProt Q07820); assay: Direct fluorescence anisotropy binding to Mcl-1
KSBcl-2 = KSBcl-2 (Human herpesvirus 8 type P, UniProt F5HGJ3); assay: biochemical; assay type: binding, Kaposi's sarcoma-associated herpesvirus (KSHV)
KSBcl-2, sequence (F5HGJ3 whole entry): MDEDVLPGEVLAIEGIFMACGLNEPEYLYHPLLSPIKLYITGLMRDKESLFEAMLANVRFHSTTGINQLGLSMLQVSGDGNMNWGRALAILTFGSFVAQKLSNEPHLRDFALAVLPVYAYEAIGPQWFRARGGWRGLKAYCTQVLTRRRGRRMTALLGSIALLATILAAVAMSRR

BHRF1, sequence (P03182 whole entry): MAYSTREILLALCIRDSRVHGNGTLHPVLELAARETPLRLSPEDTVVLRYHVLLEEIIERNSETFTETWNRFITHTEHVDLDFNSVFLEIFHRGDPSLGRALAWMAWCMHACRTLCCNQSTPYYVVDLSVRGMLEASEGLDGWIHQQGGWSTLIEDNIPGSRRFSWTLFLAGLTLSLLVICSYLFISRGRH
Mcl-1, sequence (Q07820 whole entry): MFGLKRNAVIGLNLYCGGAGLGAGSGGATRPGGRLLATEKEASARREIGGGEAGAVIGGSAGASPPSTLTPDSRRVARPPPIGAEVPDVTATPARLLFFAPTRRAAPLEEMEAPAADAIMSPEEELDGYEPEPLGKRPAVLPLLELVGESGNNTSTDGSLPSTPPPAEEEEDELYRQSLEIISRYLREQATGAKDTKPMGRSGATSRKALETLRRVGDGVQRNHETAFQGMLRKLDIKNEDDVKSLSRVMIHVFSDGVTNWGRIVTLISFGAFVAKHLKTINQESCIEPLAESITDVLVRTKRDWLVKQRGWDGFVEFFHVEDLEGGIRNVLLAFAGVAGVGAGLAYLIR

| Substance | Kd (BHRF1) | Kd (Mcl-1) | Kd (KSBcl-2) |
| --- | --- | --- | --- |
| RPIIWIGQEISRVGDRENAYKAR-NH2 [BL6-22_Y4eK] | 30 ± 17 nM | ~2200 nM | 750 ± 300 nM |
| RPNIWLTQRLQRTGDGLNAYYAR-NH2 [KScomp] | > 1000 nM | 510 ± 190 nM | 13 ± 7.3 nM |
| RPQIWIHQGLQRLGAGLNAYYAR-NH2 [KL6-7_D3fA] | > 1000 nM | > 5000 nM | 180 ± 80 nM |
| RPQIWIHQGLQRLGDGLNAYKAR-NH2 [KL6-7_Y4eK] | > 1000 nM | ~7800 nM | 2.9 ± 1.3 nM |
